In patent publication EP0072761B1, “Decarboxylase-inhibiting fluorinated alkane diamine derivatives” (MERRELL TORAUDE ET COMPAGNIE, priority 1981, dated 1983):

Target: T1, Ornithine decarboxylase (ODC) (Rattus norvegicus, UniProt P09057)
T1 construct: is prepared from the livers of rats which have been injected with thioacetamide; from tissue; host or cells: rat liver (thioacetamide-induced)
T1 sequence (P09057 1-461): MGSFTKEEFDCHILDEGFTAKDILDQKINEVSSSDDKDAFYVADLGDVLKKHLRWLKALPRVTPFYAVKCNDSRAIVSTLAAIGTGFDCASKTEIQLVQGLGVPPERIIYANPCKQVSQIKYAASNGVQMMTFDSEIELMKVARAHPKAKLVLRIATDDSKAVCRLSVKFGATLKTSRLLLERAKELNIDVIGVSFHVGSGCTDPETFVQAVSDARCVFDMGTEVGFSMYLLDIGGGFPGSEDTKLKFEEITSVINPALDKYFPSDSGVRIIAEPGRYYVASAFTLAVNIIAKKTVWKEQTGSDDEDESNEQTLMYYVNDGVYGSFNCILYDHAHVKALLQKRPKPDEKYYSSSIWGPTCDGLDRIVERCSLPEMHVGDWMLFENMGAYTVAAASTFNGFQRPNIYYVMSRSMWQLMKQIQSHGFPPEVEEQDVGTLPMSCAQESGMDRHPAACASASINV
Assay: In vitro time-dependent inhibition of ornithine decarboxylase (14CO2 release from DL-[1-14C]ornithine; Kitz and Wilson analysis)
Format: biochemical, rats
Details: calculated by method of Kitz and Wilson; for ODC τ50: half-life at infinite concentration of inhibitor, rat liver ODC, 37°; for Ki: apparent dissociation constant, ODC from livers of thioacetamide-treated rats, incubated at 37°
Procedure: The stock solution of ODC is composed of proteins (16 mg/mL), sodium phosphate buffer (30 mM, pH 7.1), dithiothreitol (5 mM) and pyridoxal phosphate (0.1 mM). The specific activity of this stock solution is 0.12 nmol of CO2/min per mg of protein. For a typical experiment 320 µl of this stock solution is mixed at time 0 with 80 µl of a solution of the inhibitor in water and incubated at 37°. At different times 50 pl aliquots are transferred into a 1 mL assay medium containing sodium phosphate (30 mM, pH 7.1), dithiothreitol (5 mM), pyridoxal phosphate (0.1 mM), L-ornithine (0.081 pmol), and DL-[1-^14C] ornithine (0.043 pmol, 58 Ci/mol, Amersham) in a closed vessel in which a filter paper moistered with 50 µl hyamine hydroxide (1 M) is fitted. The reaction is allowed to proceed for 60 min at 37°C and then terminated by addition of 0.5 ml of 40% trichloroacetic acid. After an additional 30 min, the CO2 absorbed on the filter paper is counted in a standard scintillation cocktail.

Row | Ki [µM] | Compound | ODC τ50 [min]
1 | – | NCC(=O)CC(N)CF (stereo not shown) [C, 1-fluoro-2,5-diamino-4-oxo-pentane] | 1.6
2 | 53 | C=C(CN)CC(N)(CF)C(=O)O (stereo not shown) [D, 2-fluoromethyl-2,5-diamino-4-methylene-pentanoic acid] | 3.6
3 | – | C=C(CN)CC(N)C(F)F (stereo not shown) [E, 1,1-difluoro-2,5-diamino-4-methylene-pentane] | 2.2
4 | 4.8 | NCC(=O)CC(N)(CF)C(=O)O (stereo not shown) [A, 2-fluoromethyl-2,5-diamino-4-oxo-pentanoic acid] | 3.1
5 | – | C=C(CN)CC(N)CF (stereo not shown) [B, 1-fluoro-2,5-diamino-4-methylene-pentane] | 2.6
